Data on five compounds can be found in US7601511B2, “Biotin-facilitated transport in gram negative bacteria” (priority 2003, dated 2009).

One test relates to E. coli MG1655. As to the kind of experiment: Effect of added compounds on uptake of biotinylated peptide (competition / block). The test is classed as cell-based, Escherichia coli. The note with it: 31 amino acid peptide, sampled after 10 minutes. How it is done: (§1) Uptake assays. Minimal 37° C. overnights were diluted into fresh minimal media and incubated at 37° C. until they reached an OD550 of 0.5. The 10 and 31 amino acid randomized biotinylated peptides were added to the media at a concentration of 1 μg per mL of culture. After addition of the peptide to the culture, 1 mL aliquots were extracted at time intervals up to an hour, washed twice of extracellular peptide using fresh minimal media, then boiled with SDS-PAGE gradient sample buffer. Samples were run on a 10-16% tricine gradient gel (Schägger et al., 1987, Anal. Biochem. 166:368-379) and transferred to nitrocellulose membranes. The resulting Western blots were treated with NeutrAvidin Horseradish Peroxidase Conjugate and SuperSignal West Dura Extended Duration Chemiluminescent Substrate. The membranes were incubated for 5-10 minutes then exposed to X-ray film for 1-10 minutes. Bands on the film were quantified using the AlphaEase 5.5 Densitometry ProGram from Alpha Innotech.
(§2) One mL samples were extracted 10 minutes after the addition of the peptide and analyzed by SDS PAGE as previously described.

Another test concerns S. aureus. The test can be described thus: Effect of added biotin on uptake of biotinylated peptide (competition). Type of test: cell-based, Staphylococcus aureus. The note with it: 31 amino acid peptide; equimolar or 10× equimolar amounts, added five minutes before peptide. The method, then:
as §1, §2

[1] abbreviates: equimolar or 10× equimolar amounts, added five minutes before peptide.

For `N#CC(C#N)=NNc1cccc(Cl)c1` [CCCP, carbonyl cyanide m-chlorophenylhydrazone], the “effect on uptake of biotinylated peptide in E. coli” value (“effect on uptake … in E. coli” below) in the test on E. coli MG1655 (CCCP 50 μM added prior to peptide) is recorded as “uptake is blocked”.

For `O=C(O)CCCC[C@@H]1SC[C@@H]2NC(=O)N[C@@H]21` [biotin], the “effect on uptake … in E. coli” value in the test with E. coli MG1655 (setting [1]) is “could be blocked”. Moreover, in the test on S. aureus, the “effect on uptake of biotinylated peptide in S. aureus” value is listed as “no effect”.

Consider `Cc1ncc(C[n+]2csc(CCO)c2C)c(N)n1` [thiamine], for which the “effect on uptake … in E. coli” value in the test with E. coli MG1655 (setting [1]) is “no effect”.

“avidin: protein known to tightly bind biotin, purchased from Sigma”: the “effect on uptake … in E. coli” value in the test with E. coli MG1655 (setting [1]) is reported as “could competitively inhibit”.

Take “bovine serum albumin: similarly sized protein used as control”: in the test with E. coli MG1655 (setting [1]), the “effect on uptake … in E. coli” value is on record as “no effect”.
